Experimental data reported in ChEMBL document CHEMBL2074090, “Characterization of the transport properties of cloned rat multidrug resistance-associated protein 3 (MRP3)” (J Biol Chem, 1999).

Legend:
[1] = target: T1, MRP3 (ABCC3, ATP-binding cassette sub-family C member 3) (Rattus norvegicus, UniProt O88563); test: TP_TRANSPORTER: inhibition of E217betaG uptake (E217betaG: 0.1 uM, alpha-naphthyl beta-D-glucuronide: 200 uM) in membrane vesicle from Mrp3-expressing LLC-PK1 cells; assay type: functional, cell membranes; parameters: scale not given: the % may be the effect or the level left; conditions: pig, membrane vesicles from Mrp3-expressing LLC-PK1 cells, probe E217betaG; read-out: Activity
[2] = target: T1, MRP3 (ABCC3, ATP-binding cassette sub-family C member 3); test: TP_TRANSPORTER: inhibition of E217betaG uptake (E217betaG: 0.1 uM, DNP-SG: 500 uM) in membrane vesicles from MRP3-expressing LLC-PK1 cells; assay type: functional, cell membranes, Membrane vesicle; parameters: scale not given: the % may be the effect or the level left; conditions: pig, probe E217betaG, read-out: Activity
[3] = target: T1, MRP3 (ABCC3, ATP-binding cassette sub-family C member 3); test: TP_TRANSPORTER: inhibition of E217betaG uptake (E217betaG: 0.1 uM, 4-methylumbeliferone glucuronide: 500 uM) in membrane vesicle from Mrp3-expressing LLC-PK1 cells; assay type: functional, cell membranes; parameters: scale not given: the % may be the effect or the level left; conditions: pig, membrane vesicles from Mrp3-expressing LLC-PK1 cells, probe E217betaG; read-out: Activity
[4] = target: T1, MRP3 (ABCC3, ATP-binding cassette sub-family C member 3); test: TP_TRANSPORTER: inhibition of E217betaG uptake (E217betaG: 0.1 uM, E3040 glucuronide: 50 uM) in membrane vesicles from MRP3-expressing HeLa cells; assay type: functional, cell membranes, Membrane vesicle; parameters: scale not given: the % may be the effect or the level left; conditions: human, probe E217betaG, read-out: Activity
[5] = target: ATP-binding cassette sub-family C member 3 (Rattus norvegicus, UniProt O88563); test: (§1) TP_TRANSPORTER: uptake in membrane vesicle from Mrp3-expressing LLC-PK1 cells; assay type: functional, cell membranes; conditions: pig
[6] = target: T1, MRP3 (ABCC3, ATP-binding cassette sub-family C member 3); test: TP_TRANSPORTER: inhibition of E217betaG uptake (E217betaG: 0.1 uM, E1S: 500 uM) in membrane vesicle from Mrp3-expressing LLC-PK1 cells; assay type: functional, cell membranes; parameters: scale not given: the % may be the effect or the level left; conditions: pig, membrane vesicles from Mrp3-expressing LLC-PK1 cells, probe E217betaG; read-out: Activity
[7] = target: T1, MRP3 (ABCC3, ATP-binding cassette sub-family C member 3); test: TP_TRANSPORTER: inhibition of E217betaG uptake (E217betaG: 0.1 uM, LTC4: 2.5 uM) in membrane vesicle from Mrp3-expressing LLC-PK1 cells; assay type: functional, cell membranes; parameters: scale not given: the % may be the effect or the level left; conditions: pig, membrane vesicles from Mrp3-expressing LLC-PK1 cells, probe E217betaG; read-out: Activity
[8] = target: T1, MRP3 (ABCC3, ATP-binding cassette sub-family C member 3); test: TP_TRANSPORTER: inhibition of E217betaG uptake (E217betaG: 0.1 uM, MTX: 1000 uM) in membrane vesicles from MRP3-expressing HeLa cells; assay type: functional, cell membranes, Membrane vesicle; parameters: scale not given: the % may be the effect or the level left; conditions: human, probe E217betaG, read-out: Activity
[9] = target: T1, MRP3 (ABCC3, ATP-binding cassette sub-family C member 3); test: TP_TRANSPORTER: inhibition of E217betaG uptake (E217betaG: 0.1 uM, MTX: 1000 uM) in membrane vesicles from MRP3-expressing LLC-PK1 cells; assay type: functional, cell membranes, Membrane vesicle; parameters: scale not given: the % may be the effect or the level left; conditions: pig, probe E217betaG, read-out: Activity
[10] = substrate: C[C@]12CC[C@@H]3c4ccc(O)cc4CC[C@H]3[C@@H]1CC[C@@H]2O[C@@H]1O[C@H](C(=O)O)[C@@H](O)[C@H](O)[C@H]1O; test: as §1; assay type: functional, cell membranes

Molecule: O=C(O)[C@H]1O[C@@H](Oc2cccc3ccccc23)[C@H](O)[C@@H](O)[C@@H]1O
- activity at 200 µM [1]: 23.6%

Molecule: N[C@@H](CCC(=O)N[C@H](CSc1ccc([N+](=O)[O-])cc1[N+](=O)[O-])C(=O)NCC(=O)O)C(=O)O
- activity at 500 µM [2]: 14.4%

Molecule: O=C(O)[C@H]1O[C@@H](OCc2cc(=O)oc3cc(O)ccc23)[C@H](O)[C@@H](O)[C@@H]1O
- activity at 500 µM [3]: 14.1%

Molecule: CNc1nc2c(Cc3cccnc3)c(C)c(O[C@@H]3O[C@H](C(=O)O)[C@@H](O)[C@H](O)[C@H]3O)c(C)c2s1 [E3040 GLUCURONIDE]
- activity at 50 µM [4]: 11.1%
- Activity [5]: substrate [+]

Molecule: C[C@]12CC[C@@H]3c4ccc(OS(=O)(=O)O)cc4CC[C@H]3[C@@H]1CCC2=O [ESTRONE SULFURIC ACID]
- activity at 500 µM [6]: 33.3%

Molecule: CCCCC/C=C\C\C=C/C=C/C=C/[C@@H](SC[C@@H](NC(=O)CC[C@H](N)C(=O)O)C(=O)NCC(=O)O)[C@@H](O)CCCC(=O)O [LEUKOTRIEN C4]
- activity at 2.5 µM [7]: 57%

Molecule: CN(Cc1cnc2nc(N)nc(N)c2n1)c1ccc(C(=O)N[C@@H](CCC(=O)O)C(=O)O)cc1 [METHOTREXATE]
- Activity [5]: substrate [+]
- activity at 1000 µM [8]: 18.5%
- activity at 1000 µM [9]: 10.7%

B1: ATP-binding cassette sub-family C member 3 (Rattus norvegicus) (protein)
chain: MDRLCGSGELGSKFWDSNLTVYTNTPDLTPCFQNSLLAWVPCIYLWAALPCYLFYLRHHRLGYIVLSCLSRLKTALGVLLWCISWVDLFYSFHGLVHGSSPAPVFFITPLLVGITMLLATLLIQYERLRGVRSSGVLIIFWLLCVICAIIPFRSKILLALAEGKILDPFRFTTFYIYFALVLCAFILSCFQEKPPLFSPENLDTNPCPEASAGFFSRLSFWWFTKLAILGYRRPLEDSDLWSLSEEDCSHKVVQRLLEAWQKQQTQASGPQTAALEPKIAGEDEVLLKARPKTKKPSFLRALVRTFTSSLLMGACFKLIQDLSPSSTHSCSASSSGLFRPHGPYWWGFLLAGLMFVSSTMQTLILHQHYHCIFVMALRIRTAIIGVIYRKALTITNSVKREYTVGEMVNLMSVDAQRFMDVSPFINLLWSAPLQVILAIYFLWQILGPSALAGVAVIVLLIPLNGAVSMKMKTYQVQQMKFKDSRIKLMSEILNGIKVLKLYAWEPTFLEQVEGIRQGELQLLRKGAYLQAISTFIWVCTPFMVTLITLGVYVCVDKNNVLDAEKAFVSLSLFNILKIPLNLLPQLISGMTQTSVSLKRIQDFLNQDELDPQCVERKTISPGRAITIHNGTFSWSKDLPPTLHSINIQIPKGALVAVVGPVGCGKSSLVSALLGEMEKLEGAVSVKGSVAYVPQQAWIQNCTLQENVLFGQPMNPKRYQQALETCALLADLDVLPGGDQTEIGEKGINLSGGQRQRVSLARAVYSDANIFLLDDPLSAVDSHVAKHIFDQVIGPEGVLAGKTRVLVTHGISFLPQTDFIIVLADGQITEMGHYSELLQHDGSFANFLRNYAPDENQEANEGVLQHANEEVLLLEDTLSTHTDLTDTEPAIYEVRKQFMREMSSLSSEGEGQNRPVLKRYTSSLEKEVPATQTKETGALIKEEIAETGNVKLSVYWDYAKSVGLCTTLFICLLYAGQNAVAIGANVWLSAWTNDVEEHGQQNNTSVRLGVYATLGILQGLLVMLSAFTMVVGAIQAARLLHTALLHNQIRAPQSFFDTTPSGRILNRFSKDIYVIHEVLAPTILMLFNSFYTSISTIVVIVASTPLFCVVVLPLAVFYGFVQRFYVATSRQLKRLESVSRSPIFSHFSETVTGTSVIRAYGRVQDFKVLSDAKVDSNQKTTYPYIASNRWLGVHVEFVGNCVVLFSALFAVIGRNSLNPGLVGLSVSYALQVTLSLNWMIRTLSDLESNIIAVERVKEYSKTETEAPWVLESNRAPEGWPRSGVVEFRNYSVRYRPGLELVLKNLTLHVQGGEKVGIVGRTGAGKSSMTLCLFRILEAAEGEIFIDGLNVAHIGLHDLRSQLTIIPQDPILFSGTLRMNLDPFGRYSDEDIWRTLELSHLSAFVSSQPTGLDFQCSEGGDNLSVGQRQLVCLARALLRKSRVLVLDEATAAIDLETDDLIQGTIRTQFEDCTVLTIAHRLNTIMDYNRVLVLDKGVVAEFDSPVNLIAAGGIFYGMAKDAGLA
- Km [10]: 110 µM
